Tested on: N-linked glycosylation
Experiment: D54-ERLucT cell based luciferase assay for inhibition of N-linked glycosylation
Text: The HTS approach using the bioluminescent N-linked glycosylation reporter (CCR 2011) in D54-ERLucT and D54-LucT cells has been previously described (Bennett, et al., Transl Oncol 2013, 6, 382-391). Briefly, the primary cell-based screen detects site occupancy of NLG sequons using a modified luciferase protein translated into the ER. […] The methodology for the primary (D54-ERlucT), secondary (D54-LucT), and tertiary (luciferase inhibition) screens as well and toxicity assays with CelltitreGlo are deposited in Pubchem (AID 588693).
The primary screen was developed in the D54 glioma cell line using a modified P. pyralis luciferase gene (ER-LucT) that is ER translated and glycosylated at three N-linked glycosylation consensus sequences. Glycosylation of the reporter inactivates luciferase enzymatic activity providing a robust methodology to detect inhibition of this process. D54 cells expressing a non-ER translated luciferase (LucT) insensitive to inhibition of N-linked glycoysation were used as a secondary screen for false positives. The primary screen was performed in duplicate and values were normalized to the average of positive control wells (Tunicamycin) minus averaged neutral vehicle treated wells per run. Compounds with replicate activity greater than three standard deviations above the mean average of control wells were selected for further study. A subset of 1,845 compounds met this criterion, and were advanced to simultaneous retesting in both the primary screen and a secondary (false positive) cell-based screen. […] Compounds were further triaged from consideration by consulting the Pubchem bioassay database and deprioritizing compounds showing a promiscuity rate higher than 5% across assays or by removing PAINS scaffolds (Baell, et al., J Med Chem 2010, 53, 2719-2740). Remaining compounds were assessed by medicinal chemistry review to score synthetic tractability and known issues with instability, poor solubility, or toxicity. This analysis yielded 39 compounds that were tested in a cell-free assay to detect luciferase inhibitors (Auld, et al., Proc Natl Acad Sci USA 2010, 107, 4878-4883) and by western blot analysis to detect gel mobility changes of the luciferase reporter, consistent with inhibition of N-linked glycosylation. This approach identified one aminobenzamidosulfonamide compound that blocked N-linked glycosylation.
To better understand the connection between structure and activity, analogs were prepared and tested in the D54-ERLucT cell based assay for inhibition of N-linked glycosylation (FIG. 1B). The assay was used to estimate and compare AC40 values among analogs and to guide the design of improved compounds that inhibited N-linked glycosylation. This effort generated 36 unique compounds with modifications to the amine component of the sulfonamide functionality (red), the pyrrolidine moiety (blue) or the methylaminothiazole group (green). Generally, incorporation of larger sulfonamides (i.e., larger secondary amines appended to the sulphone) was not well tolerated, resulting in erosion of potency (7 analogs). However, steric interactions could be mitigated by the introduction of a hydrogen bond accepting oxygen in a larger cyclic amine. Thus, morpholine was determined to be an acceptable surrogate for the dimethylamine component of the sulfonamide (FIGS. 1A-1D). The pyrrolidine group (blue) was replaced with various alkyl, cycloalkyl, and amine groups (7 compounds). The aminothiazole moiety was derivatized most extensively of all three regions (green highlighted area, 22 analogs). […] Analogs with the highest potency in the luciferase assay were retested with western blot analysis to insure that measurements of luciferase activation corresponded to loss of N-linked glycosylation.

[1] = D54-ERLucT cells, luciferase activation

## Cc1cnc(NC(=O)c2cc(S(=O)(=O)N(C)C)ccc2N2CCCC2)s1 [NGI-1, 5-(N,N-Dimethylsulfamoyl)-N-(5-methylthiazol-2-yl)-2-(pyrrolidin-1-yl)benzamide]
[1]
  NLG Inhibition ASSAY Potency Mean AC40: 170 nM
  NLG Inhibition max act, %: 321.4%
Luminescent activity, estimated, FIG. 1C, read-out: IC50 in intact D54 ER-LucT cells in culture
  IC50: 1060 nM

Reference: US11219625B2, “Inhibitors of N-linked glycosylation and methods using same” (YALE UNIVERSITY, priority 2015, dated 2022)
